Assay results published in patent US4755388A, “Liposome-encapsulated 5-fluoropyrimidines and methods for their use” (The Regents of the University of California, priority 1986, dated 1988).
Where two headings read alike, the source gives them in different places.

How the values were obtained:
CV1-P cells = test: Growth inhibition by 5-fluoroorotate, CV1-P cells (72 hours); type: cell-based; settings: free drug mean of 3 determinations, liposomes from individual growth inhibition curves, read-out: IC50 (concentration of the drug that inhibits cell growth by 50%)
Protocol: (§1) All phospholipids (Avanti, Birmingham, Ala.) were used without further purification. Cholesterol (Sigma, St. Louis, Mo.) was recrystallized four times with methanol. All lipids were stored under argon in chloroform solution in sealed ampoules until use. Liposomes were prepared by reverse-phase evaporation (Szoka and Papahadjopoulos (1978) Proc. Natl. Acad. Sci. U.S.A. 75:4194-4198), and extrusion (Szoka et al. (1980) Biochem. et Biophys. Acta. 601:559-571). Small liposomes were made by extensive sonication of lipid suspensions. The unencapsulated drug was removed by gel filtration with Sephadex® G75 (Pharmacia). Lipid concentration was measured by phosporous analysis as described by Bartlett (1959) J. Biol. chem. 234:466-468. The encapsulated drug was measured using a molar extinction coefficient of 7100 in 0.1N HCl. A liposome sample was extracted (Bligh et al. (1959) Can. J. Biochem. Physiol. 37:[…]), the upper phase was acidified with HCl, and its absorbance was meausred. L929 murine fibroblasts and CV1-P cells were obtained and grown as previously described by Heath et al. (1983) Proc. Natl. Acad. Sci. U.S.A. 80:1377-1381 and Fraley et al. (1980) J. Biol. Chem. 255:10431-10435, respectively. The IC50 of the liposome preparations was measured by growth inhibition as previously described by Heath et al. (1983) supra. […]

L929 murine fibroblasts = test: Growth inhibition by 5-fluoroorotate, L929 murine fibroblasts (48 hours); type: cell-based; settings: free drug mean of 4 determinations, liposomes from individual growth inhibition curves, read-out: IC50 (concentration of the drug that inhibits cell growth by 50%)
Protocol: as §1

Aqueous solubility = type: physicochemical; settings: water, read-out: maximum aqueous solubility

SMILES | IC50 (CV1-P cells) [µM] | IC50 (L929 murine fibroblasts; L929, 48 hours) [µM] | IC50 (L929 murine fibroblasts; Mus musculus, L929, 48 h) [µM] | solubility (Aqueous solubility) [mM]
O=C(O)c1[nH]c(=O)[nH]c(=O)c1F [Free Drug, 5-fluoroorotate] | 7 | 1.1 ± 0.3 | 1 | –
O=C([O-])c1[nH]c(=O)[nH]c(=O)c1F.[Na+] [Sodium 5-fluoroorotate] | – | – | – | 15
O=C([O-])c1[nH]c(=O)[nH]c(=O)c1F.[Li+] [lithium salt, lithium 5-fluoroorotate] | – | – | – | ≥ 50
